Legend:
Format in all cases: physicochemical
[1] = Formation of diketopiperazine derivative (3) from enalapril maleate in ethyl acetate containing 0.1% water or in H2O, 60° C., 6 hours, HPLC (Example 9); conditions: 16% by weight
Protocol: (§1) The HPLC analysis was carried out under the following conditions:
According to Example 1, N-(1(S)-ethoxycarbonyl-3-phenylpropyl)-L-alanyl-L-proline maleate was prepared. Thereto was added ethyl acetate containing 0.1% water or H2O to prepare a solution having a concentration of 16% by weight, and the solution was warmed to 60° C. and stirred for 6 hours. The amount produced of the diketopiperazine derivative (3) was analyzed with HPLC, and the relation between water content and the average increase in the diketopiperazine derivative (3) per hour was investigated.

[2] = Partition of enalapril between ethyl acetate and water against temperature, HPLC (Example 11); conditions: ethyl acetate solution + H2O 10% by volume
Protocol: as §1
According to Example 1, an ethyl acetate solution of N-(1(S)-ethoxycarbonyl-3-phenylpropyl)-L-alanyl-L-proline was prepared. To 50 ml of the ethyl acetate solution was added H2O in an amount of 10% by volume (based on ethyl acetate). The mixture was stirred for 10 minutes at each temperature shown in Table 6, and allowed to stand still for 10 minutes and, then, separated. The amount of N-(1(S)-ethoxycarbonyl-3-phenylpropyl)-L-alanyl-L-proline in the water-saturated organic phase was analyzed with HPLC, and the relation between the temperature and the partition ratio to the organic phase was investigated.

[3] = Formation of diketopiperazine derivative (3) from enalapril in ethyl acetate of given water content or in water, 30° C., 6 hours, HPLC (Example 8); conditions: about 13% by weight solution
Protocol: as §1
According to Example 1, an ethyl acetate solution of N-(1(S)-ethoxycarbonyl-3-phenylpropyl)-L-alanyl-L-proline was prepared. 129.40 Grams of this organic phase was washed twice with 30 ml of saturated brine, and dehydrated with magnesium sulfate. The solvent was concentrated and, then, the concentrated liquid was dried under reduced pressure to obtain an oily reaction product. This product was dissolved in ethyl acetate having a water content shown in Table 3 or water to prepare a solution having a concentration of about 13% by weight, and the solution was warmed to 30° C. and stirred for 6 hours. The amount produced of the diketopiperazine derivative (3) was analyzed with HPLC, and the relation between water content and the average increase in the diketopiperazine derivative (3) per hour was investigated. The molar ratio in Table 3 means mol number of water per 1 mol of N-(1(S)-ethoxycarbonyl-3-phenylpropyl)-L-alanyl-L-proline.

[4] = Formation of diketopiperazine derivative (3) from the Example 10 oil in ethyl acetate of given water content, 10° C., 6 hours, HPLC (Example 10); conditions: about 12% by weight solution
Protocol: as §1
To 5.00 g (28.2 mmol) of 1,2,3,4-tetrahydroisoquinoline-3-carboxylic acid were added 20 ml of ethyl acetate and 10 ml of H2O and, then, the pH was adjusted to 10.5 with 30% by weight NaOH aqueous solution. The inner temperature was regulated to 20° C. and, then, 4.31 g (14.1 mmol) of a crystal of N-(1(S)-ethoxycarbonyl-3-phenylpropyl)-L-alanine.N-carboxyanhydride was slowly added over 5 hours with stirring. During the addition, the reaction mixture was maintained at a pH of 10.5±1.0 with adding dropwise 30% by weight NaOH aqueous solution, and simultaneously, the inner temperature was maintained at 20° C. and the agitating power was maintained at 1.3 kW/m^3. After completion of the addition, the stirring was continued for 2 hour under the same conditions. The mixture was cooled to 5° C., and the pH thereof was adjusted to 4.5±0.2 with 35% by weight HCl. Then, under the same conditions, the stirring was continued for 10 minutes to complete the decarboxylation. The deposited material was removed by filtration under reduced pressure, and the organic phase was separated at 5° C. and the water phase was further extracted once with 20 ml of ethyl acetate at 10° C. The resulting organic phases were mixed and then washed three times with H2O in an amount of 5% by volume of the organic phase at 5° C. The organic phase was concentrated under reduced pressure to obtain 6.43 g of an oil. The oil was dissolved in ethyl acetate having a water content shown in Table 5 to prepare a solution having a concentration of about 12% by weight, and the resulting solution was stirred for 6 hours at 10° C. The amount produced of the diketopiperazine derivative (3) was analyzed with HPLC, and the relation between water content and the average increase in the diketopiperazine derivative (3) per hour was investigated.

With `CCOC(=O)[C@H](CCc1ccccc1)N[C@@H](C)C(=O)N1CCC[C@H]1C(=O)O.O=C(O)/C=C\C(=O)O` [N-(1(S)-ethoxycarbonyl-3-phenylpropyl)-L-alanyl-L-proline maleate] the “Average increase per hour of diketopiperazine derivative (3)” value (shortened to “Average increase per hour”) ([1]; H2O) was 0.06 % by weight/hr and the “Average increase per hour” value ([1]; ethyl acetate containing 0.1% water) was 0.55 % by weight/hr.

With `CCOC(=O)[C@H](CCc1ccccc1)N[C@@H](C)C(=O)N1CCC[C@H]1C(=O)O` [N-(1(S)-ethoxycarbonyl-3-phenylpropyl)-L-alanyl-L-proline] the “Partition ratio to organic phase” value ([2]; 5° C.) was 26%, the “Partition ratio to organic phase” value ([2]; 10° C.) was 35% and the “Partition ratio to organic phase” value ([2]; 20° C.) was 57%. The “Partition ratio to organic phase” value ([2]; 25° C.) was 72%, the “Partition ratio to organic phase” value ([2]; 30° C.) was 88% and the “Partition ratio to organic phase” value ([2]; 40° C.) was 94%. The “Average increase per hour” value ([3]; ethyl acetate, water content 0.1% by weight (molar ratio 0.1)) was 2.85 % by weight/hr, the “Average increase per hour” value ([3]; ethyl acetate, water content 0.4% by weight (molar ratio 0.6)) was 2.06 % by weight/hr and the “Average increase per hour” value ([3]; ethyl acetate, water content 1.1% by weight (molar ratio 1.6)) was 1.32 % by weight/hr. The “Average increase per hour” value ([3]; ethyl acetate, water content 2.1% by weight (molar ratio 3.1)) was 0.99 % by weight/hr, the “Average increase per hour” value ([3]; ethyl acetate, water content 3.8% by weight (molar ratio 6.1)) was 0.48 % by weight/hr and the “Average increase per hour” value ([3]; ethyl acetate, water content 5.1% by weight (molar ratio 8.2)) was 0.39 % by weight/hr. For the same compound, the “Average increase per hour” value ([3]; water, water content 100% by weight (molar ratio 160)) was 0.02 % by weight/hr.

In the case of `CCOC(=O)[C@H](CCc1ccccc1)N[C@@H](C)C(=O)N1Cc2ccccc2C[C@H]1C(=O)O` [Example 10], the “Average increase per hour” value ([4]; water content 0.1% by weight) is reported as 5.3 % by weight/hr, the “Average increase per hour” value ([4]; water content 1.0% by weight) is reported as 2.2 % by weight/hr and the “Average increase per hour” value ([4]; water content 2.1% by weight) is reported as 1.7 % by weight/hr. For the same compound, the “Average increase per hour” value ([4]; water content 3.8% by weight) was 1.3 % by weight/hr.

Source: patent US6713628B2, “Process for preparing pharmacologically acceptable salt of N-(1(S)-ethoxycarbonyl-3-phenylpropyl)-L-alanyl-amino acid” (Kaneka Corporation, priority 1997, dated 2004)
